Measurements reported in patent US6737425B1, “N,N-substituted cyclic amine derivatives” (Eisai Co., Ltd., priority 1998, dated 2004).
Where “and” joins values, the source holds several entries; their conditions need not be identical. Equal entries are not always repeated.

Test system: rat model with occlusion in the middle cerebral artery
Assay: Effect (I) of reducing infarct volume in a rat model with occlusion in the middle cerebral artery (2 hours occlusion)
Assay type: in vivo
Conditions: for Infarct volume in the cerebral cortex, Mean: from 30 minutes after occlusion, 6 hours, 2 hours occlusion, 24 hours after occlusion; for reduction of infarct volume in the cerebral cortex: vs control group
Procedure: Effect (I) of Reducing Infarct Volume in a Rat Model with Occlusion in the Middle Cerebral Artery
The compound in Example 1 was selected as the typical example of the compound of the present invention, and this sample was dissolved in 5.28% mannitol to be adjusted to a dosage of 5 or 10 mg/kg/h just before use. The concentration of the sample was calculated on the basis of the average weight of animals, as shown in the following example. The average weight was determined by measuring the weights of all animals to be used in the experiment.
For occlusion in the middle cerebral artery, an embolus prepared from nylon yarn of 4-0 monofilament (Ethicon, Inc., Somerville, N.J., USA) was used. The end of the nylon embolus was previously rounded with flame, and it was cut into fragments of 25 mm in length, and each fragment was marked at a position 17 mm apart from the end with an oil-based felt pen.
Implantation of a catheter for intravenous administration (Atom venous catheter 3Fr, Atom Medical Co., Ltd., Tokyo) was conducted under anesthesia with 70% laughing gas-2% halothane. The catheter filled with physiological saline was inserted through the thigh vein in the left leg.
Occlusion in the middle cerebral artery was conducted in accordance with the method of Longa et al. (12). Just after the catheter was implanted, the operation was conducted under anesthesia with 70% laughing gas-2% halothane. A rat was allowed to lie on the back and the cervical region was cut open under a stereoscopic microscope for operation, and the part where the common carotid artery at the right side branched into the external carotid artery and the internal carotid artery was confirmed. The external carotid artery was cut at the peripheral side, and the nylon embolus was inserted through the end of the cut external carotid artery into the internal carotid artery. The embolus was inserted until the position 17 mm apart from the end of the embolus reached the point where the external carotid artery was joined to the internal carotid artery, and the embolus was fixed. To initiate blood stream again, the nylon embolus was removed 2 hours after the middle cerebral artery was occluded. […]
Twenty four hours after the middle cerebral artery was occluded, the head was cut off from the rat and the brain was taken out. […] The sample was left at room temperature for at least 1 hour in the TTC solution and then measured for the infarct area. […]

CC(C)C(C#N)(CCCN1CCN(CCOc2ccc(F)cc2)CC1)c1ccccc1 (stereo not shown) [Example 1, 1-[(4-Cyano-5-methyl-4-phenyl)hexyl]-4-[2-(4-fluorophenoxy)ethyl]piperazine]
Infarct volume in the cerebral cortex, Mean (5 mg/kg/h i.v. (table: 5 mg/kg)): 162.2±16.3 mm^3 and 162.17 mm^3 | reduction of infarct volume in the cerebral cortex (5 mg/kg/h i.v.): 28% | Infarct volume in the cerebral cortex, Mean (10 mg/kg/h i.v. (table: 10 mg/kg)): 135.5±26.2 mm^3 and 135.50 mm^3 | reduction of infarct volume in the cerebral cortex (10 mg/kg/h i.v.): 40%
